# Results reported in PubChem BioAssay (NCI).
# “And” between values parts separate entries of the source, which are not always exact repeats. Identical values can stand only once.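 Values below derive from 48-hour exposures of cells grown in 96-well plates, with endpoints linearly interpolated between the two concentrations bracketing the appropriate inhibition level. Here, GI50 denotes the concentration required for 50% inhibition of growth. TGI: concentration producing complete growth inhibition.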
# What was measured:
# Assay in all cases: inhibition of tumour cell growth, NCI panel, 48 h
# [1] = system: 786-0 renal
# [2] = system: A498 renal
# [3] = system: A549 NSCLC
# [4] = system: ACHN renal
# [5] = system: COLO 205 colon
# [6] = system: DLD-1 colon
# [7] = system: DMS 114 small cell lung
# [8] = system: EKVX NSCLC
# [9] = system: HCC-2998 colon
# [10] = system: HCT-116 colon
# [11] = system: HCT-15 colon
# [12] = system: HL-60(TB) leukemia
# [13] = system: HOP-18 NSCLC
# [14] = system: HOP-62 NSCLC
# [15] = system: HOP-92 NSCLC
# [16] = system: HT29 colon
# [17] = system: IGROV1 ovarian
# [18] = system: K-562 leukemia
# [19] = system: KM12 colon
# [20] = system: KM20L2 colon
# [21] = system: LOX IMVI melanoma
# [22] = system: LXFL 529 NSCLC
# [23] = system: M19-MEL melanoma
# [24] = system: MALME-3M melanoma
# [25] = system: MOLT-4 leukemia
# [26] = system: NCI-H226 lung
# [27] = system: NCI-H23 lung
# [28] = system: NCI-H460 lung
# [29] = system: NCI-H522 lung
# [30] = system: OVCAR-3 ovarian
# [31] = system: OVCAR-4 ovarian
# [32] = system: OVCAR-5 ovarian
# [33] = system: OVCAR-8 ovarian
# [34] = system: RPMI-8226 leukemia
# [35] = system: RXF 393 renal
# [36] = system: RXF-631 renal
# [37] = system: SF-268 CNS
# [38] = system: SF-295 CNS
# [39] = system: SF-539 CNS
# [40] = system: SK-MEL-2 melanoma
# [41] = system: SK-MEL-28 melanoma
# [42] = system: SN12C renal
# [43] = system: SNB-19 CNS
# [44] = system: SNB-75 CNS
# [45] = system: SNB-78 CNS
# [46] = system: SR leukemia
# [47] = system: SW-620 colon
# [48] = system: TK-10 renal
# [49] = system: U251 CNS
# [50] = system: UACC-257 melanoma
# [51] = system: UO-31 renal
# [52] = system: XF 498 CNS
# [53] = system: CCRF-CEM leukemia
# [54] = system: DMS 273 small cell lung
# [55] = system: M14 melanoma
# [56] = system: SK-MEL-5 melanoma
# [57] = system: SK-OV-3 ovarian
# [58] = system: UACC-62 melanoma
# [59] = system: BT-549 breast
# [60] = system: CAKI-1 renal
# [61] = system: DU-145 prostate
# [62] = system: MDA-MB-231 breast
# [63] = system: MDA-MB-435
# [64] = system: MDA-N
# [65] = system: NCI/ADR-RES ovarian
# [66] = system: PC-3 prostate
# [67] = system: T-47D breast
structure (smiles),measurement,setting,value
CCOC(=O)C1SC(=Nc2ccccc2)N=C1C (stereo not given),TGI,[1],> 100 µM
same,TGI,[2],> 100 µM
same,TGI,[3],> 100 µM
same,TGI,[4],> 100 µM
same,TGI,[5],> 100 µM
same,TGI,[6],> 100 µM
same,TGI,[7],> 100 µM
same,TGI,[8],> 100 µM
same,TGI,[9],> 100 µM
same,TGI,[10],> 100 µM
same,TGI,[11],> 100 µM
same,TGI,[12],> 100 µM
same,TGI,[13],> 100 µM
same,TGI,[14],> 100 µM
same,TGI,[15],88.8 µM
same,TGI,[16],> 100 µM
same,TGI,[17],> 100 µM
same,TGI,[18],> 100 µM
same,TGI,[19],> 100 µM
same,TGI,[20],> 100 µM
same,TGI,[21],> 100 µM
same,TGI,[22],> 100 µM
same,TGI,[23],> 100 µM
same,TGI,[24],> 100 µM
same,TGI,[25],> 100 µM
same,TGI,[26],> 100 µM
same,TGI,[27],> 100 µM
same,TGI,[28],> 100 µM
same,TGI,[29],> 100 µM
same,TGI,[30],> 100 µM
same,TGI,[31],> 100 µM
same,TGI,[32],> 100 µM
same,TGI,[33],> 100 µM
same,TGI,[34],> 100 µM
same,TGI,[35],> 100 µM
same,TGI,[36],> 100 µM
same,TGI,[37],> 100 µM
same,TGI,[38],> 100 µM
same,TGI,[39],> 100 µM
same,TGI,[40],> 100 µM
same,TGI,[41],> 100 µM
same,TGI,[42],> 100 µM
same,TGI,[43],> 100 µM
same,TGI,[44],88.7 µM
same,TGI,[45],> 100 µM
same,TGI,[46],> 100 µM
same,TGI,[47],> 100 µM
same,TGI,[48],> 100 µM
same,TGI,[49],> 100 µM
same,TGI,[50],> 100 µM
same,TGI,[51],> 100 µM
same,TGI,[52],> 100 µM
C[Si](C)(C)/C(I)=C/CO,TGI,[1],> 100 µM
same,TGI,[2],> 100 µM
same,TGI,[3],76.3 µM
same,TGI,[4],46.4 µM
same,TGI,[53],48.2 µM
same,TGI,[5],31.1 µM
same,TGI,[54],48.9 µM
same,TGI,[8],71.7 µM
same,TGI,[10],27.5 µM
same,TGI,[11],72.1 µM
same,TGI,[13],64.1 µM
same,TGI,[15],54.5 µM
same,TGI,[16],44.5 µM
same,TGI,[17],> 100 µM
same,TGI,[18],41.4 µM
same,TGI,[19],60.8 µM
same,TGI,[20],55.9 µM
same,TGI,[21],42.1 µM
same,TGI,[22],> 100 µM
same,TGI,[55],> 100 µM
same,TGI,[23],53.1 µM
same,TGI,[24],74.9 µM
same,TGI,[25],35.3 µM
same,TGI,[26],39.3 µM
same,TGI,[27],39.5 µM
same,TGI,[28],46.3 µM
same,TGI,[29],34.5 µM
same,TGI,[30],73.1 µM
same,TGI,[31],> 100 µM
same,TGI,[32],69 µM
same,TGI,[33],86.5 µM
same,TGI,[34],40.7 µM
same,TGI,[36],83.8 µM
same,TGI,[37],94.1 µM
same,TGI,[38],58.3 µM
same,TGI,[39],39.9 µM
same,TGI,[40],38.4 µM
same,TGI,[41],77.5 µM
same,TGI,[56],34.6 µM
same,TGI,[57],> 100 µM
same,TGI,[42],64.7 µM
same,TGI,[43],64.7 µM
same,TGI,[44],> 100 µM
same,TGI,[45],95.3 µM
same,TGI,[47],47.8 µM
same,TGI,[48],96.9 µM
same,TGI,[49],36.7 µM
same,TGI,[50],45.2 µM
same,TGI,[58],52.9 µM
same,TGI,[51],71.5 µM
same,TGI,[52],31.9 µM
COc1ccc2c(c1)c[n+](C)c1c3cc(OC)c(OC)cc3ccc21,GI50,[1],2.85 µM
same,TGI,[1],15.9 µM
same,GI50,[2],2.02 µM and 19.7 µM
same,TGI,[2],6.85 µM and 57.7 µM
same,TGI,[3],10.3 µM
same,GI50,[4],2.42 µM and 9.86 µM
same,TGI,[4],5.01 µM and 23.8 µM
same,GI50,[59],2.4 µM and 10.2 µM
same,TGI,[59],9.63 µM and 26.2 µM
same,TGI,[60],32.2 µM and 44 µM
same,GI50,[53],0.559 µM and 1.42 µM
same,TGI,[53],> 100 µM and 12.4 µM
same,TGI,[5],3.5 µM and 2.99 µM
same,TGI,[6],18 µM
same,TGI,[7],7.14 µM
same,TGI,[54],3.54 µM
same,GI50,[61],3.1 µM and 8.21 µM
same,TGI,[61],11.4 µM and 21.3 µM
same,GI50,[8],1.5 µM and 11.3 µM
same,TGI,[8],4.52 µM and 42.3 µM
same,GI50,[9],1.86 µM and 7.34 µM
same,TGI,[9],3.71 µM and 19.9 µM
same,GI50,[10],1.08 µM and 2.48 µM
same,TGI,[10],2.32 µM and 10 µM
same,TGI,[11],30 µM and > 74.1 µM
same,GI50,[12],0.467 µM and 1.85 µM
same,TGI,[12],3.48 µM and 16.9 µM
same,TGI,[13],29.4 µM
same,GI50,[14],4.63 µM
same,TGI,[14],15.2 µM
same,GI50,[15],3.69 µM and 14.6 µM
same,TGI,[15],9.98 µM and 35.1 µM
same,GI50,[16],1.01 µM and 3.61 µM
same,TGI,[16],2.31 µM and 15.5 µM
same,GI50,[17],1.39 µM and 4.4 µM
same,TGI,[17],2.85 µM and 15.8 µM
same,TGI,[18],43.1 µM
same,GI50,[19],1.21 µM and 2.88 µM
same,TGI,[19],2.79 µM and 9.42 µM
same,TGI,[20],17.8 µM
same,TGI,[21],2.65 µM and 4.96 µM
same,TGI,[22],7.25 µM
same,GI50,[55],1.41 µM and 4.48 µM
same,TGI,[55],3.05 µM and 14.3 µM
same,TGI,[23],15.8 µM
same,GI50,[24],3.71 µM and 12.4 µM
same,TGI,[24],14.9 µM and 26 µM
same,TGI,[62],2.83 µM and 3.07 µM
same,GI50,[63],1.51 µM and 5.1 µM
same,TGI,[63],2.98 µM and 20 µM
same,TGI,[64],3.08 µM and 8.07 µM
same,GI50,[25],0.358 µM and 1.7 µM
same,TGI,[25],3.81 µM and 17.9 µM
same,GI50,[26],4.22 µM and 12.1 µM
same,TGI,[26],14.8 µM and 25.9 µM
same,GI50,[27],1.48 µM and 3.35 µM
same,TGI,[27],3.08 µM and 11.8 µM
same,GI50,[28],1.23 µM and 2.7 µM
same,TGI,[28],2.72 µM and 10.9 µM
same,TGI,[29],2.33 µM and 4.34 µM
same,TGI,[65],> 100 µM
same,TGI,[30],15 µM
same,GI50,[31],5.48 µM
same,TGI,[31],20.4 µM
same,GI50,[32],1.52 µM and 11.8 µM
same,TGI,[32],5.17 µM and 25 µM
same,TGI,[33],4.61 µM and 6.34 µM
same,GI50,[66],1.36 µM and 4.32 µM
same,TGI,[66],3.84 µM and 16 µM
same,TGI,[34],7.28 µM
same,GI50,[35],1.5 µM and 5.8 µM
same,TGI,[35],2.98 µM and 13.6 µM
same,TGI,[37],9.9 µM
same,GI50,[38],5.06 µM
same,TGI,[38],17.8 µM
same,GI50,[39],1.95 µM and 6.15 µM
same,TGI,[39],3.5 µM and 13.9 µM
same,GI50,[40],2.3 µM and 7.11 µM
same,TGI,[40],6.12 µM and 16.9 µM
same,GI50,[41],1.7 µM and 13 µM
same,TGI,[41],3.45 µM and 27.3 µM
same,GI50,[56],4.08 µM and 8.31 µM
same,TGI,[56],15.1 µM and 20.2 µM
same,TGI,[57],29.4 µM
same,TGI,[42],3.53 µM and 8.51 µM
same,TGI,[43],8.1 µM and 13.8 µM
same,GI50,[44],6.66 µM
same,TGI,[44],20 µM
same,TGI,[45],22.4 µM
same,TGI,[46],13.2 µM
same,TGI,[47],3.13 µM and 3.76 µM
same,GI50,[67],1.95 µM and 5.02 µM
same,TGI,[67],4.93 µM and 26.4 µM
same,GI50,[48],2.13 µM and 11.2 µM
same,TGI,[48],5.37 µM and 24 µM
same,TGI,[49],2.3 µM and 5.45 µM
same,GI50,[50],1.8 µM and 13.5 µM
same,TGI,[50],4.36 µM and 30.8 µM
same,TGI,[58],23.9 µM
same,GI50,[51],2.22 µM and 9.28 µM
same,TGI,[51],5.13 µM and 22.5 µM
same,TGI,[52],17.1 µM
